Experimental findings from ChEMBL document CHEMBL6071183, “Neuroprotective Effect of 2-(Benzyloxy)arylureas Is Not Related to CypD Inhibition nor Suppression of mPTP Opening” (ACS Med Chem Lett, 2024) are described below.

In brackets after ≈: the same amount, converted by molar mass.

The target of data set [1] is Peptidyl-prolyl cis-trans isomerase A (Homo sapiens, UniProt P62937).
Peptidyl-prolyl cis-trans isomerase A, sequence (P62937 whole entry): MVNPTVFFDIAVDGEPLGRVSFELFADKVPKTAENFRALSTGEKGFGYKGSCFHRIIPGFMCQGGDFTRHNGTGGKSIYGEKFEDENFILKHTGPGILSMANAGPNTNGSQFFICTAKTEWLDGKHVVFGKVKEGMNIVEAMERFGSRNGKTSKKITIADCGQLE

Broadly, the IC50 is the concentration needed to halve the response being measured. A lower IC50 goes with inhibition by little substance. Usually solubility stands for the dissolved amount per volume that the medium holds. Turning to `O=C(Nc1ccc([N+](=O)[O-])cc1)Nc1ncccc1OCc1ccccc1`, the IC50 in data set [1] is 10 µM. Also, in “physchem”, the concentration in solution (solubility) came to 20 µM (≈ 7.29 µg/mL).
